# Results reported in patent EP4653008A1, “TRADITIONAL CHINESE MEDICINE COMPOSITION HAVING EFFICACY IN TREATING COLDS AND USE THEREOF” (Shijiazhuang Yiling Pharmaceutical Co., Ltd., priority 2023, dated 2024).
# Key:
# ICR mice [1] = assay: ear-swelling in mice caused by xylene; format: in vivo; conditions: 0.50g/kg
# Protocol: Referring to the specification and literature documents, the dose of aspirin drug administered to mice was set at 0.50 g/kg, as shown in Table 25.
# (§1) A disposable syringe was used to administer the drug at a dosing volume of 10 ml/kg. Animals in the model group were administered with a corresponding volume of the solvent. The administration was carried out for 5 days.
# After receiving new experimental animals, they were numbered and subjected to an adaptive feeding for at least 5 days. The grouping was carried out as described previously. 0.5 h after the last administration, the animal was fixed, and the right ear was exposed. The xylene was applied to the middle area of the right ear of the mice by dropwise addition using a pipette, with each 15 µL of xylene applied to dorsal and ventral sides and spread evenly. The left ear was left untreated. After 40 min, the animal was sacrificed by cervical dislocation. Both ears were then cut along the base of the auricle. A punch (7 mm diameter) was used to obtain symmetrical ear tissues from both ears, which were weighed on a precision analytical balance. The weights were recorded, and the degree of swelling and the swelling inhibition rate were calculated. Swelling degree = weight of the right ear tissue - weight of the left ear tissue [formula] [formula]
# SD rats = assay: fever in rats induced by intraperitoneal injection of LPS; format: in vivo; conditions: 3h after LPS, 26.64 mg/kg
# ICR mice [2] = assay: writhing in mice caused by acetic acid; format: in vivo; conditions: 5.00 mg/kg
# Protocol: Referring to the previous studies in our laboratory and relevant literatures, the dose of indomethacin drug administered to mice was set at 5.00 mg/kg, as shown in Table 23.
# as §1
# After receiving new experimental animals, they were numbered, subjected to an adaptive feeding for 5 days and grouped as described above. All animals were fasted for more than 12 h before the last administration, and 1 h after the last administration, 0.7% acetic acid was injected into the abdominal cavity of mice at a dose of 10ml/kg to stimulate the visceral and parietal peritoneum, leading to a deep, widespread, and long-time pain. […] The latency period to the onset of writhing and the number of writhing incidents within 15 min were recorded as quantitative indicators of pain.
# H1HeLa = assay: cells; format: cell-based; conditions: Homo sapiens, H1-HeLa, 72 h, n=3
# influenza B virus (IBV) = assay: in vitro antiviral assay (CPE, CCK-8); format: cell-based; conditions: MDCK host cells, n=4
# influenza A virus (H3N2) = assay: in vitro antiviral assay (CPE, CCK-8); format: cell-based; conditions: MDCK host cells, n=4
# MDCK = assay: in vitro cytotoxicity (CCK-8); format: cell-based, canine; conditions: Canis lupus familiaris; MDCK cells; 72 h; n=3
# Protocol: • (1) Test Grouping: The appropriate starting concentration of the pharmaceutical composition was selected for test grouping according to the references. All the pharmaceutical compositions were diluted with serum-free DMEM medium. For the cell control group, only serum-free DMEM medium was used. […] For the positive control drug group, oseltamivir acid as a positive drug was set up at concentrations of 1000, 500, 250, 125, 62.5, and 31.25 µM. […] Recombinant human interferon α2b gel as a positive drug was set up at final concentrations of 1000, 333.33, 111.11, […], 33.33, and 11.11 IU/mL. The blank control group contained only serum-free DMEM medium and no cells. Three replicate wells were set up for each concentration in each group. • (2) Cell Plating: Cells were prepared into a suspension single cells (1×10^4 cells/mL), seeded to a 96-well cell culture plate (100 µL/well), and incubated overnight in a 37°C, 5% CO2 incubator. • (3) Addition of Drug and Test: The culture medium was discarded and the cells were washed twice with 1×PBS. […] After cells were incubated in the incubator for 1-4 h, the OD450 nm value was read using a microplate reader. The inhibition rate of cells and the half maximal inhibitory concentration (IC50) of the tested drugs on cells were calculated. […]
# Coxsackievirus B3 (CVB3) [3] = assay: viral load in gastrointestinal tissues, coxsackievirus infection model of young rats; format: in vivo, young SD rats
# Protocol: Each group consisted of 50 animals.
# Homogenization was carried out using a high-speed homogenizer to prepare a tissue suspension. The suspension was centrifuged at 14000 rpm for 10 min at 4°C and the resulting supernatant was collected. RNA was extracted using the RNA extraction solution, and the extracted RNA was reverse transcribed into c-DNA. The fluorescence intensity of c-DNA obtained by reverse transcription was measured by using absolute quantitative PCR, and the fluorescence intensity of c-DNA was used to reflect the load of coxsackievirus B3 in the tissues of the stomach, small intestine, and large intestine.
# TNF-α = TNF-α in tissues (ELISA), coxsackievirus infection model of young rats
# IL-1β = IL-1β in tissues (ELISA), coxsackievirus infection model of young rats
# IFN-γ = IFN-γ in tissues (ELISA), coxsackievirus infection model of young rats
# [4] = test system: lymphocyte (CD4^+ and CD8^+); assay: lymphocytes in blood (flow cytometry), coxsackievirus infection model of young rats; conditions: 120.7mg/kg; for CD4^+/CD8^+: ratio
# IL-10 = IL-10 in tissues (ELISA), coxsackievirus infection model of young rats
# Coxsackievirus B3 (CVB3) [5] = assay: pathological changes of gastrointestinal tract, coxsackievirus infection model of young rats; conditions: animals with this lesion grade (n=10), 120.7 mg/kg
# [6] = test system: respiratory syncytial virus (RSV); assay: in vitro antiviral assay (CPE, CCK-8); format: cell-based; conditions: human respiratory syncytial virus, HEp-2 host cells, 100 TCID50, n=4
# [7] = test system: parainfluenza virus (PIV); assay: in vitro antiviral assay (CPE, CCK-8); format: cell-based; conditions: LLC-MK2 host cells, 100 TCID50, n=4
# LLC-MK2 = assay: in vitro cytotoxicity (CCK-8); format: cell-based, monkey; conditions: Primates; LLC-MK2 cells; 72 h; n=3
# HEp-2 = assay: in vitro cytotoxicity (CCK-8); format: cell-based; conditions: Homo sapiens; HEp-2 cells; 72 h; n=3
# enterovirus (EV71) = assay: in vitro antiviral assay (CPE, CCK-8); format: cell-based; conditions: LLC-MK2 host cells, 100 TCID50, n=4
# Protocol: • (1) Test Grouping: Concentrations were set up based on the comprehensive results of cytotoxicity assays and OD450nm, values, and literature reports on the antiviral effects of positive control drugs. The concentration without significant toxic effects on cells under microscopic observation was selected as the starting concentration for the in vitro antiviral test. […] All of them were diluted into 5 concentrations, with 4 replicate wells set up for each concentration. A virus titer of 100 TCID50 was used to infect the cells. The grouping was as follows: virus + drug group, in which the drug group included the test substance group and the positive control drug group; the virus control group (with virus and no drug), and the cell control group (with virus maintenance solution only). See Table 3 below for detail. • (2) Cell Plating: Cells were prepared into a single cell suspension (1×10^4 cells/mL), seeded into a 96-well cell culture plate at 100 µL per well, and incubated overnight in a 37°C, 5% CO2 incubator. • (3) Addition of Drug and Observation: The medium was discarded, and the cells were washed twice with 1×PBS. […] The OD450nm value of the cells was read using a microplate reader. The inhibition rates of virus by different concentrations of the test substance and their median effective concentration (EC50) against virus were calculated as follows. […]
# rhinovirus (Rhv) = assay: in vitro antiviral assay (CPE, CCK-8); format: cell-based; conditions: Enterovirus, H1-HeLa
# Vero = assay: in vitro cytotoxicity (CCK-8); format: cell-based, African green monkey; conditions: Chlorocebus sabaeus; Vero cells; 72 h; n=3
# Coxsackievirus B3 (CVB3) [8] = assay: in vitro antiviral assay (CPE, CCK-8); format: cell-based; conditions: Enterovirus B, LLC-MK2
# rotavirus (RV) = assay: in vitro antiviral assay (CPE, CCK-8); format: cell-based; conditions: Vero
# [9] = 3 days after administration, 120.7 mg/kg
# [10] = next day after last administration, 120.7mg/kg
# [11] = next day after the last administration
# [12] = next day after last administration
smiles,measurement,setting,value
"CC(=O)Oc1ccccc1C(=O)O [Aspirin, aspirin]",Swelling degree,ICR mice [1],5.53 ± 2.81 mg
same,Swelling inhibition rate (%),ICR mice [1],50.34%
CC(C)Cc1ccc(C(C)C(=O)O)cc1 (centres unmarked) [Ibuprofen],ΔT (ΔT =Tx-T0) °C,SD rats,0.28 ± 0.48 °C
"COc1ccc2c(c1)c(CC(=O)O)c(C)n2C(=O)c1ccc(Cl)cc1 [Indomethacin, indomethacin]",Latency period,ICR mice [2]; onset of writhing,736.83 ± 258.16 s
same,Number of writhing incident,ICR mice [2]; within 15 min,2.17±4.53
"CCC(CC)O[C@@H]1C=C(C(=O)O)C[C@H](N)[C@H]1NC(C)=O [Oseltamivir acid, Oseltamivir Acid]",IC50,H1HeLa,1 µM
same,EC50,influenza B virus (IBV),0.0806 µM
same,EC50,influenza A virus (H3N2),0.931 µM
same,IC50,MDCK,> 1000 µM
"NC(=O)c1ncn([C@@H]2O[C@H](CO)[C@@H](O)[C@H]2O)n1 [Ribavirin granule, Ribavirin]","viral load, Large intestine",Coxsackievirus B3 (CVB3) [3]; [9],515.92±226.55 Copies/mg
same,"viral load, Small intestine",Coxsackievirus B3 (CVB3) [3]; [9],947.76±811.44 Copies/mg
same,"viral load, Stomach",Coxsackievirus B3 (CVB3) [3]; [9],49.19±11.47 Copies/mg
same,"viral load, Large intestine",Coxsackievirus B3 (CVB3) [3]; [10],16346.45±20084.56 Copies/mg
same,"viral load, Small intestine",Coxsackievirus B3 (CVB3) [3]; [10],308.03±198.76 Copies/mg
same,"viral load, Stomach",Coxsackievirus B3 (CVB3) [3]; [10],104.75±74.10 Copies/mg
same,TNF-α Large intestine,"TNF-α; D4, 120.7mg/kg",2557 ± 100 pg/mg
same,TNF-α Small intestine,"TNF-α; D4, 120.7mg/kg",2806 ± 158 pg/mg
same,TNF-α Large intestine,"TNF-α; D8, 120.7 mg/kg",2491 ± 151 pg/mg
same,TNF-α Small intestine,"TNF-α; D8, 120.7 mg/kg",2698 ± 145 pg/mg
same,TNF-α Stomach,"TNF-α; D8, 120.7 mg/kg",2731 ± 96 pg/mg
same,IL-1β Large intestine,"IL-1β; D4, 120.7mg/kg",317 ± 18 pg/mg
same,IL-1β Small intestine,"IL-1β; D4, 120.7mg/kg",318 ± 23 pg/mg
same,IL-1β Stomach,"IL-1β; D4, 120.7mg/kg",291 ± 20 pg/mg
same,IL-1β Large intestine,"IL-1β; D8, 120.7 mg/kg",320 ± 34 pg/mg
same,IL-1β Small intestine,"IL-1β; D8, 120.7 mg/kg",340 ± 21 pg/mg
same,IL-1β Stomach,"IL-1β; D8, 120.7 mg/kg",308 ± 24 pg/mg
same,IFN-γ Large intestine,"IFN-γ; D4, 120.7mg/kg",18364 ± 1203 pg/mg
same,IFN-γ Small intestine,"IFN-γ; D4, 120.7mg/kg",16295 ± 865 pg/mg
same,IFN-γ Stomach,"IFN-γ; D4, 120.7mg/kg",18235 ± 816 pg/mg
same,IFN-γ Large intestine,"IFN-γ; D8, 120.7 mg/kg",19728 ± 926 pg/mg
same,IFN-γ Small intestine,"IFN-γ; D8, 120.7 mg/kg",17443 ± 1296 pg/mg
same,IFN-γ Stomach,"IFN-γ; D8, 120.7 mg/kg",16481 ± 1093 pg/mg
same,% lymphocyte CD4^+,[4]; 3 days after administration,33.31±8.66%
same,% lymphocyte CD8^+,[4]; 3 days after administration,20.52±5.91%
same,% lymphocyte CD4^+,[4]; [11],22.69±4.04%
same,% lymphocyte CD8^+,[4]; [11],11.40±2.18%
same,CD4^+/CD8^+,[4]; 3 days after administration,1.65±0.18
same,CD4^+/CD8^+,[4]; [11],2.03±0.37
same,IL-10 Large intestine,"IL-10; D4, 120.7mg/kg",497 ± 28 pg/mg
same,IL-10 Small intestine,"IL-10; D4, 120.7mg/kg",473 ± 23 pg/mg
same,IL-10 Stomach,"IL-10; D4, 120.7mg/kg",509 ± 37 pg/mg
same,IL-10 Large intestine,"IL-10; D8, 120.7 mg/kg",496 ± 50 pg/mg
same,Cecum and rectum +,Coxsackievirus B3 (CVB3) [5]; 3 days after administration,3
same,Cecum and rectum + +,Coxsackievirus B3 (CVB3) [5]; 3 days after administration,0
same,Cecum and rectum -,Coxsackievirus B3 (CVB3) [5]; 3 days after administration,7
same,Duodenum and jejunum +,Coxsackievirus B3 (CVB3) [5]; 3 days after administration,0
same,Duodenum and jejunum + +,Coxsackievirus B3 (CVB3) [5]; 3 days after administration,0
same,Ileum and colon +,Coxsackievirus B3 (CVB3) [5]; 3 days after administration,2
same,Ileum and colon + +,Coxsackievirus B3 (CVB3) [5]; 3 days after administration,3
same,Ileum and colon -,Coxsackievirus B3 (CVB3) [5]; 3 days after administration,5
same,Stomach +,Coxsackievirus B3 (CVB3) [5]; 3 days after administration,9
same,Stomach + +,Coxsackievirus B3 (CVB3) [5]; 3 days after administration,1
same,Stomach -,Coxsackievirus B3 (CVB3) [5]; 3 days after administration,0
same,Cecum and rectum +,Coxsackievirus B3 (CVB3) [5]; [12],5
same,Cecum and rectum + +,Coxsackievirus B3 (CVB3) [5]; [12],2
same,Cecum and rectum -,Coxsackievirus B3 (CVB3) [5]; [12],3
same,Duodenum and jejunum +,Coxsackievirus B3 (CVB3) [5]; [12],0
same,Duodenum and jejunum + +,Coxsackievirus B3 (CVB3) [5]; [12],0
same,Ileum and colon +,Coxsackievirus B3 (CVB3) [5]; [12],2
same,Ileum and colon + +,Coxsackievirus B3 (CVB3) [5]; [12],3
same,Ileum and colon -,Coxsackievirus B3 (CVB3) [5]; [12],5
same,Stomach +,Coxsackievirus B3 (CVB3) [5]; [12],5
same,Stomach + +,Coxsackievirus B3 (CVB3) [5]; [12],0
same,Stomach -,Coxsackievirus B3 (CVB3) [5]; [12],5
NC(=O)c1ncn([C@@H]2O[C@H](CO)[C@@H](O)[C@H]2O)n1 [Ribavirin],EC50,[6],> 10 µg/mL
same,IC50,H1HeLa,> 1000 µg/mL
same,EC50,[7],20.9 µg/mL
same,IC50,LLC-MK2,> 1000 µg/mL
same,IC50,HEp-2,> 1000 µg/mL
same,EC50,enterovirus (EV71),6.03 µg/mL
same,EC50,rhinovirus (Rhv),> 30 µg/mL
same,IC50,Vero,> 1000 µg/mL
same,EC50,Coxsackievirus B3 (CVB3) [8],102 µg/mL
same,EC50,rotavirus (RV),20.6 µg/mL
